Data: patent publication US20050202549A1, “Crystal structure” (Pfizer Inc, priority 2001, published 2005)

Legend:
[1] = target: T1, wild-type PDE5 catalytic domain (Homo sapiens, UniProt O76074); test: X-ray structure of wild-type PDE5 catalytic domain complexed with Sildenafil; conditions: X-ray structure of wild-type PDE5 complex; binding in the active site, blocking access for the cGMP substrate
T1 construct: Construction and Expression of PDE5 Wild-type Catalytic Domain (E534-N875); made in house; host or cells: baculovirus / insect cells (pFastbac1; Sf-9 for virus stocks, T.ni High5 named for expression)

[2] = target: T2, PDE5* (loop-swapped PDE5 catalytic domain) (Homo sapiens, UniProt O76074, C677D/E669N/H670S/H678E/I665L/I680V/INS676N/L675M/M681L/N661S/P671E/Q666I/Q674L/R658P/R667N/S663Q/S668T/Y664F); test: Soaking of inhibitor into C2 crystal form of PDE5* and X-ray structure determination; assay type: binding
T2 construct: Construction and Expression of PDE5* (E534-E858) in E. coli; made in house; host or cells: E. coli BL21 (DE3), pET21C
Description: Plate-shaped crystals of apo PDE5* obtained according to methods detailed in EXAMPLE 6 were transferred to a 20 μl drop of 0.1M sodium HEPES and 20% Polyethylene glycol 4000 in square microbridges. To this, 1.0 μl of a 20 mg/ml concentration of inhibitor dissolved in DMSO was added. Crystals were then transferred to a solution of 0.1M sodium HEPES pH 7.4, 20% Polyethylene glycol 4000 with 15% glycerol and then frozen during X-ray data collection.
X-ray diffraction data were collected with an RaxisIV image plate detector on an in-house FR-D rotating anode (Rigaku), with Osmic mirrors (MSC). All data were processed using the HKL package (Otwinowski & Minor, 1997).
Refinement was carried out in the resolution range 30-1.5 Å using CNX (Brünger et al., 1998) with the “mlf” maximum likelihood target function. Partial structure factors from a flat bulk-solvent model and anisotropic B-factor correction were supplied throughout the refinement.

## CCCc1nn(C)c2c(=O)[nH]c(-c3cc(S(=O)(=O)N4CCN(C)CC4)ccc3OCC)nc12 [Sildenafil, 5-[2-ethoxy-5-(4-methyl-1-piperazinylsulphonyl)phenyl]-1-methyl-3-n-propyl-1,6-dihydro-7H-pyrazolo[4,3-d]pyrimidin-7-one]
[1]
  mode of inhibition: competitive

## CCCc1nn(C)c2c(=O)[nH]c(-c3ccccc3OCC)nc12 [UK-088,800, 5-(2-ethoxyphenyl)-1-methyl-3-propyl-1,6-dihydro-7H-pyrazolo[4,3-d]pyrimidin-7-one]
[2]; PDE5* C2 crystal soaked with ligand, map contoured at 2.5σ, phases prior to incorporation of ligand
  (fo-fc) electron density map at the active site region: clearly featured peak
[2]; X-ray structure of PDE5* complex, binding in the active site, blocking access for the cGMP substrate
  mode of inhibition: competitive
